In PubChem BioAssay AID1963875 (Molecular Pharmacology Branch, DTP, NCI, 2024):

Test system: KRAS-mutant PDC complex spheroid viability
Assay: Anticancer human tumor 186277-243-T-J2-PDC patient-derived colon adenocarcinoma cell line growth inhibition [KRAS2]
Conditions: for IC50: curve of first compound; for viability, T/C: stronger effect = lower value
Outline: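 Combination screen of spheroid viability in tumor-cell co-cultures with endothelial (HUVEC) and mesenchymal stem cell stroma. Each agent was tested in half-log dilutions, topping at clinical Cmax or at 10 microM without a known Cmax.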

[1] = second compound 0.1 µM, first compound 0.0316 µM
[2] = second compound 0.1 µM, first compound 0.1 µM
[3] = second compound 0.1 µM, first compound 0.316 µM
[4] = second compound 0.1 µM, first compound 1 µM
[5] = second compound 0.1 µM, first compound 3.16 µM
[6] = second compound 0.1 µM, first compound 10 µM
[7] = second compound 0.316 µM, first compound 0.0316 µM
[8] = second compound 0.316 µM, first compound 0.1 µM
[9] = second compound 0.316 µM, first compound 0.316 µM
[10] = second compound 0.316 µM, first compound 1 µM
[11] = second compound 0.316 µM, first compound 3.16 µM
[12] = second compound 0.316 µM, first compound 10 µM
[13] = second compound 1 µM, first compound 0.0316 µM
[14] = second compound 1 µM, first compound 0.1 µM
[15] = second compound 1 µM, first compound 0.316 µM
[16] = second compound 1 µM, first compound 1 µM
[17] = second compound 1 µM, first compound 3.16 µM
[18] = second compound 1 µM, first compound 10 µM
[19] = second compound 3.16 µM, first compound 0.0316 µM
[20] = second compound 3.16 µM, first compound 0.1 µM
[21] = second compound 3.16 µM, first compound 0.316 µM
[22] = second compound 3.16 µM, first compound 1 µM
[23] = second compound 3.16 µM, first compound 3.16 µM
[24] = second compound 3.16 µM, first compound 10 µM
[25] = second compound 10 µM, first compound 0.0316 µM
[26] = second compound 10 µM, first compound 0.1 µM
[27] = second compound 10 µM, first compound 0.316 µM
[28] = second compound 10 µM, first compound 1 µM
[29] = second compound 10 µM, first compound 3.16 µM
[30] = second compound 10 µM, first compound 10 µM
[31] = second compound 0.0316 µM, first compound 0.0316 µM
[32] = second compound 0.0316 µM, first compound 0.1 µM
[33] = second compound 0.0316 µM, first compound 0.316 µM
[34] = second compound 0.0316 µM, first compound 1 µM
[35] = second compound 0.0316 µM, first compound 3.16 µM
[36] = second compound 0.1 µM, first compound 0.01 µM
[37] = second compound 0.316 µM, first compound 0.01 µM
[38] = second compound 1 µM, first compound 0.01 µM
[39] = second compound 3.16 µM, first compound 0.01 µM
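Throughout, for viability, T/C: viability read after seven days of compound exposure; 100% = DMSO vehicle-treated spheroids so lower means less viable.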

| Structure (SMILES) | IC50 (second compound 0.1 µM) [nM] | IC50 (second compound 0.316 µM) [nM] | IC50 (second compound 1 µM) [nM] | IC50 (second compound 3.16 µM) [nM] | viability, T/C [1] [%] | viability, T/C [2] [%] | viability, T/C [3] [%] | viability, T/C [4] [%] | viability, T/C [5] [%] | viability, T/C [7] [%] | viability, T/C [8] [%] | viability, T/C [9] [%] | viability, T/C [10] [%] | viability, T/C [11] [%] | viability, T/C [13] [%] | viability, T/C [14] [%] | viability, T/C [15] [%] | viability, T/C [16] [%] | viability, T/C [17] [%] | viability, T/C [19] [%] | also measured |
| --- | --- | --- | --- | --- | --- | --- | --- | --- | --- | --- | --- | --- | --- | --- | --- | --- | --- | --- | --- | --- | --- |
| COc1cc2nccc(Oc3ccc(NC(=O)C4(C(=O)Nc5ccc(F)cc5)CC4)cc3)c2cc1OC + COc1cc2nc(C)nc(NC(C)c3cc(N)cc(C(F)(F)F)c3)c2cc1OC1CCOC1 | 882 | 866 | 779 | 726 | 98.2 | 112 | 114 | 12.5 | 15.8 | 105 | 102 | 97.8 | 13.9 | 13.5 | 108 | 108 | 82.2 | 11.3 | 10.7 | 114 | IC50 (second compound 10 µM): 187 nM; viability, T/C [6]: 101%; viability, T/C [12]: 102%; viability, T/C [18]: 101%; viability, T/C [20]: 114%; viability, T/C [21]: 80.7%; viability, T/C [22]: 9.28%; viability, T/C [23]: 1.53%; viability, T/C [24]: 104%; viability, T/C [25]: 92.2%; viability, T/C [26]: 66.9%; viability, T/C [27]: 39.4%; viability, T/C [28]: 1.55%; viability, T/C [29]: 0.17%; viability, T/C [30]: 89% |
| CCNC(=O)CC1N=C(c2ccc(Cl)cc2)c2cc(OC)ccc2-n2c(C)nnc21 (stereo not given) + C=CC(=O)N1CCN(c2nc(=O)n(-c3c(C)ccnc3C(C)C)c3nc(-c4c(O)cccc4F)c(F)cc23)C(C)C1 | > 10000 | > 10000 | 9860 | 2730 | 108 | 117 | 121 | 162 | 132 | 103 | 101 | 125 | 155 | 121 | 95.2 | 103 | 126 | 138 | 102 | 88.9 | IC50 (second compound 10 µM): 306 nM; viability, T/C [6]: 101%; viability, T/C [12]: 87.9%; viability, T/C [18]: 49.4%; viability, T/C [20]: 87.1%; viability, T/C [21]: 107%; viability, T/C [22]: 101%; viability, T/C [23]: 43.3%; viability, T/C [24]: 14.7%; viability, T/C [25]: 75.8%; viability, T/C [26]: 87.1%; viability, T/C [27]: 46.7%; viability, T/C [28]: 18.4%; viability, T/C [29]: 9.07%; viability, T/C [30]: 4.83% |
| CC(=O)OC12COC1CC(O)C1(C)C(=O)C(O)C3=C(C)C(OC(=O)C(O)C(NC(=O)OC(C)(C)C)c4ccccc4)CC(O)(C(OC(=O)c4ccccc4)C21)C3(C)C (stereo not given) + C=CC(=O)N1CCN(c2nc(OCC3CCCN3C)nc3c2CCN(c2cccc4cccc(C)c24)C3)CC1CC#N | < 10 | < 10 | < 10 | < 10 | 3.47 | 3.22 | 2.86 | 3.09 | 3.2 | 3.26 | 3.24 | 2.85 | 2.97 | 3.26 | 4.12 | 3.41 | 3 | 3.17 | 2.9 | 3.92 | IC50 (second compound 0.0316 µM): < 10 nM; viability, T/C (second compound 0.0316 µM, first compound 0.01 µM): 5.4%; viability, T/C [31]: 3.51%; viability, T/C [32]: 2.98%; viability, T/C [33]: 2.96%; viability, T/C [34]: 3.29%; viability, T/C [35]: 3.21%; viability, T/C [36]: 4.93%; viability, T/C [37]: 3.71%; viability, T/C [38]: 4.4%; viability, T/C [39]: 4.54%; viability, T/C [20]: 3.17%; viability, T/C [21]: 3.26%; viability, T/C [22]: 3.28%; viability, T/C [23]: 3.25% |
| CCNC(=O)CC1N=C(c2ccc(Cl)cc2)c2cc(OC)ccc2-n2c(C)nnc21 (stereo not given) + COc1cc2nc(C)nc(NC(C)c3cc(N)cc(C(F)(F)F)c3)c2cc1OC1CCOC1 | 1910 | 1310 | 1160 | 751 | 100 | 103 | 139 | 84.7 | 26.7 | 102 | 89.2 | 124 | 57.1 | 28.9 | 93.4 | 108 | 123 | 55 | 24.3 | 84.8 | IC50 (second compound 10 µM): 229 nM; viability, T/C [6]: 18.8%; viability, T/C [12]: 24.5%; viability, T/C [18]: 6.44%; viability, T/C [20]: 110%; viability, T/C [21]: 107%; viability, T/C [22]: 33.3%; viability, T/C [23]: 13.5%; viability, T/C [24]: 14.2%; viability, T/C [25]: 90.5%; viability, T/C [26]: 90.9%; viability, T/C [27]: 34.2%; viability, T/C [28]: 2.69%; viability, T/C [29]: 0.68%; viability, T/C [30]: 0.42% |
| CC1COCCN1c1cc(-c2ccnn2C)c2ccnc(-c3ccn[nH]3)c2n1 (stereo not given) + CC1OCC2(CCN(c3cnc(Sc4ccnc(N)c4Cl)c(N)n3)CC2)C1N | 20.7 | 21.6 | 21.5 | 20.7 | 30.9 | 4.6 | 3.38 | 2.91 | 3.41 | 29.9 | 4.69 | 2.62 | 2.7 | 3.03 | 18.7 | 3.36 | 2.01 | 2.23 | 2.83 | 14.6 | IC50 (second compound 10 µM): 15.2 nM; viability, T/C [36]: 82.6%; viability, T/C [37]: 90.3%; viability, T/C [38]: 113%; viability, T/C [39]: 111%; viability, T/C [20]: 3.13%; viability, T/C [21]: 1.78%; viability, T/C [22]: 1.9%; viability, T/C [23]: 2.66%; viability, T/C (second compound 10 µM, first compound 0.01 µM): 72.9%; viability, T/C [25]: 10.5%; viability, T/C [26]: 4.95%; viability, T/C [27]: 4.89%; viability, T/C [28]: 2.16%; viability, T/C [29]: 3.22% |
| CC1OCC2(CCN(c3cnc(Sc4ccnc(N)c4Cl)c(N)n3)CC2)C1N (stereo not given) + C=CC(=O)N1CCN(c2nc(OCC3CCCN3C)nc3c2CCN(c2cccc4cccc(C)c24)C3)CC1CC#N | > 10000 | > 10000 | > 10000 | < 31.6 | 108 | 112 | 110 | 103 | 104 | 113 | 111 | 102 | 110 | 102 | 102 | 99.9 | 101 | 107 | 118 | 1.51 | IC50 (second compound 0.0316 µM): > 10000 nM; viability, T/C [31]: 111%; viability, T/C [32]: 101%; viability, T/C [33]: 108%; viability, T/C [34]: 101%; viability, T/C [35]: 102%; viability, T/C (second compound 0.0316 µM, first compound 10 µM): 116%; viability, T/C [6]: 110%; viability, T/C [12]: 116%; viability, T/C [18]: 88.5%; viability, T/C [20]: 10%; viability, T/C [21]: 0.47%; viability, T/C [22]: 0.22%; viability, T/C [23]: 0.3%; viability, T/C [24]: 1.11% |
